Usually IC50 stands for the concentration that inhibits the measured activity by half. A low value points to greater potency.

The target of the assay is Dipeptidyl peptidase 4 (Rattus norvegicus, UniProt P14740). The assay is described as follows: Inhibitory activity against dipeptidyl peptidase IV (DP-IV).
Dipeptidyl peptidase 4, sequence (P14740 whole entry): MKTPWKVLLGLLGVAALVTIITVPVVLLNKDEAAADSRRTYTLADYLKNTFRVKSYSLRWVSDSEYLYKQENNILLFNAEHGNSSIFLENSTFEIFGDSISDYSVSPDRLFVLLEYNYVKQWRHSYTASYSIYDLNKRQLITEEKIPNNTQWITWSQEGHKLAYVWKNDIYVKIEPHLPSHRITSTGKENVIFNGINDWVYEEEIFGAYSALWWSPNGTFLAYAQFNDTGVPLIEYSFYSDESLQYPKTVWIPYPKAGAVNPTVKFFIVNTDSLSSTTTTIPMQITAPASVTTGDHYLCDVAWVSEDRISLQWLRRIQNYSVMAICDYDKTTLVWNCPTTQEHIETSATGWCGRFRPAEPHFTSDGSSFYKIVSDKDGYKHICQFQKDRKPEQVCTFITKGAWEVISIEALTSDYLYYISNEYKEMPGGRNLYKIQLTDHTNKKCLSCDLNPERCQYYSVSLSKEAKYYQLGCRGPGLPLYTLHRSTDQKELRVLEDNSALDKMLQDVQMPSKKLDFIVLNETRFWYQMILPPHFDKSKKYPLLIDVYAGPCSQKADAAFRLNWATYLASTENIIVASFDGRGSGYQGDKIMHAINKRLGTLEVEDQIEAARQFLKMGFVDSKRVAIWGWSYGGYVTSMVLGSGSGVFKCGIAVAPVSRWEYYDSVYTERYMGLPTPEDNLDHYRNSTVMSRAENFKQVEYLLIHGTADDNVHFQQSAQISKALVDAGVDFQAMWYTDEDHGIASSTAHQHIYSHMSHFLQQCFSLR
Regarding `CC(C)C[C@H](N)C(=O)N1CCCN1C(=O)Nc1cccc([N+](=O)[O-])c1`, the IC50 came out at 20.7 µM. As for `CC(C)[C@H](N)C(=O)N1CCCN1C(=O)Nc1cccc([N+](=O)[O-])c1`, the half-inhibitory concentration (IC50) came to 2.1 µM. `O=C(CNC1CCCCC1)N1CCCN1C(=O)Nc1cccc([N+](=O)[O-])c1` displayed a half-maximal inhibitory concentration (IC50) of 4.6 µM.

With `CCC(C)[C@H](N)C(=O)N1CCCN1C(=O)Nc1cccc([N+](=O)[O-])c1` (stereo not given in full), the half-maximal inhibitory concentration (IC50) was 1.56 µM. In turn, `CCC(C)[C@H](N)C(=O)N1CCCN1C(=O)OCc1ccccc1` (stereo not given in full) returned an IC50 of 23.3 µM. The compound `CCOC(=O)c1ccc(NC(=O)N2CCCN2C(=O)[C@@H](N)C(C)CC)cc1` (stereo not given in full) returned a half-inhibitory concentration (IC50) of 3.9 µM. `CCC(C)[C@H](N)C(=O)N1CCCN1C(=O)Nc1ccc(Cl)c(Cl)c1` (stereo not given in full) gave a half-inhibitory concentration (IC50) of 5.6 µM.

In the case of `CCC(C)[C@H](N)C(=O)N1CCCN1C(=O)Nc1ccc([N+](=O)[O-])c(F)c1` (stereo not given in full), the 50% inhibitory concentration (IC50) stood at 2.27 µM.

With `CCC(C)[C@H](N)C(=O)N1CCCN1C(=O)Nc1ccc(C#N)cc1` (stereo not given in full), the half-inhibitory concentration (IC50) is 9.2 µM. The value for `CCC(C)[C@H](N)C(=O)N1CCCN1C(=O)Nc1ccc(C(F)(F)F)cc1` (stereo not given in full) was 25 µM. In turn, `CCC(C)[C@H](N)C(=O)N1CCCN1C(=O)Nc1ccc([N+](=O)[O-])cc1` (stereo not given in full) came in with an IC50 of 7.06 µM. As to `CCC(C)[C@H](N)C(=O)N1CCCN1C(=O)Nc1ccc([N+](=O)[O-])c(Cl)c1` (stereo not given in full), the 50% inhibitory concentration (IC50) is 4.71 µM.

In turn, `CCC(C)[C@H](N)C(=O)N1CCCN1C(=O)Nc1ccccc1` (stereo not given in full) displayed an IC50 of 15 µM. Regarding `CCC(C)[C@H](N)C(=O)N1CCCN1C(=O)Nc1cccc(C#N)c1` (stereo not given in full), the IC50 stood at 4.04 µM. In turn, `CCOC(=O)c1cccc(NC(=O)N2CCCN2C(=O)[C@@H](N)C(C)CC)c1` (stereo not given in full) gave a 50% inhibitory concentration (IC50) of 8.8 µM.
